Earlier results in patent publication US6140347A, “Azetidine, pyrrolidine and piperidine derivatives as 5-HT receptor agonists” (Merck Sharp & Dohme Ltd., priority 1996, dated 2000).

Tests used:
[1] = system: human 5-HT1Dα and 5-HT1Dβ receptor subtypes; details: cf. WO-A-91/17174, Table 1
[2] = therapeutic doses

CNS(=O)(=O)Cc1ccc2[nH]cc(CCN(C)C)c2c1 [sumatriptan]
discrimination between the human 5-HT1Dα and 5-HT1Dβ receptor subtypes (in words) [1]: barely discriminates | adverse cardiovascular events in humans (in words) [2]: certain adverse cardiovascular events
